This is an account of results in article PMC8533211, “Computationally Assisted Lead Optimization of Novel Potent and Selective MAO-B Inhibitors” (Biomedicines, 2021).

Read-outs that look alike come from different tables or passages of the source.

One test concerns human recombinant MAO A. Conditions: cited from earlier work.
The test system of a further test is human recombinant MAO B. As to conditions: cited from earlier work; for IC50: human recombinant, kynuramine.
The target of another test is T1, human recombinant MAO-A (Homo sapiens, UniProt P21397).
T1 construct: purchased BD Biosciences (Bedford, MA, USA)
T1 sequence (P21397 1-527): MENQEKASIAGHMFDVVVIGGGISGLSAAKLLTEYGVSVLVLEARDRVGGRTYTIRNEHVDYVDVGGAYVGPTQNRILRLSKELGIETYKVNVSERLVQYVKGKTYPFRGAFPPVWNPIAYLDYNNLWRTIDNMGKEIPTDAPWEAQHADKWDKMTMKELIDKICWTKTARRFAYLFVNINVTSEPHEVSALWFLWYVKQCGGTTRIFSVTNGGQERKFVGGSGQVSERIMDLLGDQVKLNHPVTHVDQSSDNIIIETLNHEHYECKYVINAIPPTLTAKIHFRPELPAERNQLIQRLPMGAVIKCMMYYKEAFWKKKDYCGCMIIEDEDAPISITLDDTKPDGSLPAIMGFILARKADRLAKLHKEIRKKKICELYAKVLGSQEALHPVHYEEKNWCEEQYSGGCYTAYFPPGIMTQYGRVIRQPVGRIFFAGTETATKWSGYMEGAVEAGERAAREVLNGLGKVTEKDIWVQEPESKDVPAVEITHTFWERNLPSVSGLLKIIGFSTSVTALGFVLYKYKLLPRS
As to the kind of experiment: kynuramine oxidation deamination assay, MAO-A inhibition (IC50). Format: biochemical. As to conditions: kynuramine 80 μM, mean ± S.D. of triplicate. The protocol: (§1) A fixed single concentration of kynuramine substrate and varying concentrations of the test inhibitor were used to determine the IC50 values. The kynuramine concentrations for MAO-A and -B were 80 μM and 50 μM, respectively. These concentrations of kynuramine were twice the apparent KM value for substrate binding. […] Enzymatic reactions were performed in 50 μL of the assay mixture containing 0.1 M potassium phosphate buffer, pH 7.4. […] Reactions were initiated by the addition of 12.50 μL of MAO-A (to 5 μg/mL) or -B (to 10 μg/mL). The plate was incubated for 20 min at 37 °C, and the enzymatic reaction was terminated by the addition of 18.8 μL of 2N NaOH. Formation of the enzyme product, 4-hydroxyquinoline, was measured fluorometrically using a SpectraMax M5 fluorescence plate reader (Molecular Devices, Sunnyvale, CA, USA) with excitation (320 nm) and emission (380 nm) wavelengths and the Soft Max Pro program. The inhibition effects of enzyme activity were calculated as percent of product formation compared to the corresponding control (enzyme–substrate reaction) without inhibitors. Controls included the assays where the enzyme or the substrate was added after terminating the reaction to determine the interference with the fluorescence measurements. The IC50 values for MAO-A and -B inhibition were calculated from the concentration-dependent inhibition curves using XLFit® software.

The target of a further test is T2, human recombinant MAO-B (Homo sapiens, UniProt P27338).
T2 sequence (P27338 1-520): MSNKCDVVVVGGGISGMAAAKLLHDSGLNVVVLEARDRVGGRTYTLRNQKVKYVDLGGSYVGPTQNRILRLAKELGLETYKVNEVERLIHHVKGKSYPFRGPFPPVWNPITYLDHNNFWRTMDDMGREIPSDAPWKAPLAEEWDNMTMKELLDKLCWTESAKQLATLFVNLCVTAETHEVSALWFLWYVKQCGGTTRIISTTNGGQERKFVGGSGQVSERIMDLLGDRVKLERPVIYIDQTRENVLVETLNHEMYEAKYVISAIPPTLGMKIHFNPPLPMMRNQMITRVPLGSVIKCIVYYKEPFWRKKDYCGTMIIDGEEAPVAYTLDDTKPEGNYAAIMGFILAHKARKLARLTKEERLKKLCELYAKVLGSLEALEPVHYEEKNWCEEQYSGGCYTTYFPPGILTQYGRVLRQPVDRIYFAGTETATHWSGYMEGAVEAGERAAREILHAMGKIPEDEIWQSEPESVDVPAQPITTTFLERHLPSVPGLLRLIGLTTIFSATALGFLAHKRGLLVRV
As to the kind of experiment: kynuramine oxidation deamination assay, MAO-B inhibition (IC50). Format: biochemical. As to conditions: for Selectivity Index MAO-A/B: ratio of IC50 MAO-A / MAO-B; for IC50: recombinant human MAO-B, kynuramine 50 μM, mean ± S.D. of triplicate. On the set-up: purchased BD Biosciences (Bedford, MA, USA). The protocol:
as §1, with “The kynuramine concentrations for MAO-A and -B were 80 μM and 50 μM, respectively.” left out

`O=c1c(O)c(-c2ccc(O)c(O)c2)oc2cc(O)cc(O)c12` [Quercetin]: the IC50 (usually the concentration needed to halve the response being measured) with human recombinant MAO A was 1.52 ± 0.09 µM. Moreover, in the test on human recombinant MAO B, the “Selectivity Index MAO-A/B” value was 0.05 and the IC50 was 28.4 ± 5.41 µM.

For the compound `COc1cc(O)c2c(=O)cc(-c3ccc(NC(C)C)cc3)oc2c1` [Compound 7d, 5-Hydroxy-2-(4-(Isopropylamino)phenyl)-7-methoxy-4H-chromen-4-one], the IC50 at human recombinant MAO-A was 40.5 ± 2.37 µM; on human recombinant MAO-B, 0.417 ± 0.012 µM. The “Selectivity Index MAO-A/B” value at human recombinant MAO-B came to 97.1.

As for `C#CCN[C@@H]1CCc2ccccc21` [Rasagiline], in the test on human recombinant MAO B, the “nature of MAO-B inhibition (reversible/irreversible)” value is “irreversible MAO-B inhibitors” and the “selectivity towards MAO-B against MAO-A” value is recorded as 103 fold.

Regarding `C#CCOc1ccc(-c2cc(=O)c3c(OC)cc(OC)cc3o2)cc1` [Compound 4b, 5,7-Dimethoxy-2-(4-(prop-2-yn-1-yloxy)phenyl)-4H-chromen-4-one], at human recombinant MAO-A, the IC50 was > 100 µM. At human recombinant MAO-B, the “Selectivity Index MAO-A/B” value is on record as >1 and the IC50 is > 100 µM.

With `CCCOc1ccc(-c2cc(=O)c3c(OC)cc(OC)cc3o2)cc1` [Compound 1b, 5,7-Dimethoxy-2-(4-propoxyphenyl)-4H-chromen-4-one], the half-maximal inhibitory concentration (IC50) on human recombinant MAO-A was > 100 µM. On human recombinant MAO-B, the “Selectivity Index MAO-A/B” value is >58.8 and the half-maximal inhibitory concentration (IC50) was 1.7 ± 0.076 µM.

As to `COc1cc(OC)c2c(=O)cc(-c3ccc(OCC(C)C)cc3)oc2c1` [Compound 3b, 2-(4-Isobutoxyphenyl)-5,7-dimethoxy-4H-chromen-4-one], the IC50 was > 100 µM at human recombinant MAO-A and 7.23 ± 2.14 µM at human recombinant MAO-B. Besides, at human recombinant MAO-B, the “Selectivity Index MAO-A/B” value is given as >13.8.

On to `COc1cc(OC)c2c(=O)cc(-c3ccc(Br)cc3)oc2c1` [Compound 6b, 2-(4-Bromophenyl)-5,7-dimethoxy-4H-chromen-4-one], for which the half-inhibitory concentration (IC50) on human recombinant MAO-A came to 87.8 ± 5.45 µM. On human recombinant MAO-B, the “Selectivity Index MAO-A/B” value is reported as 3.1 and the 50% inhibitory concentration (IC50) stood at 28.4 ± 2.64 µM.

With `COc1cc(O)c2c(=O)cc(-c3ccc(O)c(OC)c3)oc2c1` [Vetulin], the IC50 with human recombinant MAO A (human recombinant, kynuramine) is 18.8 ± 0.29 µM. In the test with human recombinant MAO B, the “Selectivity Index MAO-A/B” value is 42.70 and the IC50 is 0.44 ± 0.01 µM.

Consider `COc1cc(OC)c2c(=O)cc(-c3ccc(NC(C)C)cc3)oc2c1` [Compound 7c, 2-(4-(Isopropylamino)phenyl)-5,7-dimethoxy-4H-chromen-4-one], for which the half-maximal inhibitory concentration (IC50) at human recombinant MAO-A stood at 37.5 ± 0.476 µM. On human recombinant MAO-B, the “Selectivity Index MAO-A/B” value is reported as 4.0 and the 50% inhibitory concentration (IC50) was 9.45 ± 0.113 µM.

For the compound `COc1ccc2c(c1)[nH]c1c(C)nccc12` [Harmine, reference compound], at human recombinant MAO-B, the IC50 was 39 ± 1.41 µM.

In the case of `COc1cc(OC)c2c(=O)cc(-c3ccc(OC(C)C)cc3)oc2c1` [Compound 2b, 2-(4-Isopropoxyphenyl)-5,7-dimethoxy-4H-chromen-4-one], on human recombinant MAO-A, the IC50 is > 100 µM. In addition, on human recombinant MAO-B, the “Selectivity Index MAO-A/B” value is recorded as >37.9 and the IC50 came out at 2.64 ± 0.088 µM.

For `CCCOc1ccc(/C=C/C(=O)c2c(O)cc(OC)cc2OC)cc1` [Compound 1a, (E)-1-(2-Hydroxy-4,6-dimethoxyphenyl)-3-(4-propoxyphenyl)prop-2-en-1-one], on human recombinant MAO-A, the IC50 stood at 0.515 ± 0.024 µM. In addition, at human recombinant MAO-B, the “Selectivity Index MAO-A/B” value is 1.3 and the concentration for half-maximal inhibition (IC50) worked out at 0.4 ± 0.024 µM.

As to `COc1ccc(-c2oc3cc(O)cc(O)c3c(=O)c2OC)cc1` [3,4′-Di-O-methyl kaempferol], the IC50 is 0.033 ± 0.042 µM in the test on human recombinant MAO A (human recombinant, kynuramine) and 9.67 ± 2.39 µM in the test with human recombinant MAO B.

In the case of `COc1cc(O)c(C(=O)/C=C/c2ccc(OCC(C)C)cc2)c(OC)c1` [Compound 3a, (E)-1-(2-Hydroxy-4,6-dimethoxyphenyl)-3-(4-isobutoxyphenyl)prop-2-en-1-one], the values for the half-inhibitory concentration (IC50) at human recombinant MAO-A and at human recombinant MAO-B were 0.42 ± 0.002 µM and 0.22 ± 0.0211 µM, respectively. For the same compound, the “Selectivity Index MAO-A/B” value on human recombinant MAO-B is 1.9.

For the compound `COc1cc(O)c(C(=O)/C=C/c2ccc(OC(C)C)cc2)c(OC)c1` [Compound 2a, (E)-1-(2-Hydroxy-4,6-dimethoxyphenyl)-3-(4-isopropoxyphenyl)prop-2-en-1-one], the IC50 at human recombinant MAO-A stood at 0.117 ± 0.05 µM. Besides, at human recombinant MAO-B, the “Selectivity Index MAO-A/B” value was 2.4 and the IC50 amounted to 0.049 ± 0.0035 µM.

Consider `COc1cc(OC)c2c(=O)cc(-c3ccc(NCC4CC4)cc3)oc2c1` [Compound 8c, 2-(4-((Cyclopropylmethyl)amino)phenyl)-5,7-dimethoxy-4H-chromen-4-one], for which, at human recombinant MAO-A, the IC50 came out at 39.1 ± 5.14 µM. Further, at human recombinant MAO-B, the “Selectivity Index MAO-A/B” value stood at 3.1 and the IC50 stood at 12.7 ± 0.29 µM.

As for `CCCNc1ccc(-c2cc(=O)c3c(O)cc(OC)cc3o2)cc1` [Compound 6d, 5-Hydroxy-7-methoxy-2-(4-(propylamino)phenyl)-4H-chromen-4-one], the IC50 on human recombinant MAO-A was determined as 85.5 ± 1.59 µM. For the same compound, at human recombinant MAO-B, the “Selectivity Index MAO-A/B” value turned out to be 55.0 and the IC50 amounted to 1.55 ± 0.137 µM.

With `COc1cc(O)c2c(=O)cc(-c3ccc(NCC4CC4)cc3)oc2c1` [Compound 8d, 2-(4-((Cyclopropylmethyl)amino)phenyl)-5-hydroxy-7-methoxy-4H-chromen-4-one], on human recombinant MAO-A, the half-maximal inhibitory concentration (IC50) was determined as 39.1 ± 0.555 µM. Besides, at human recombinant MAO-B, the “Selectivity Index MAO-A/B” value amounted to 17.9 and the IC50 came to 2.19 ± 0.088 µM.

Take `COc1cc(O)c(C(=O)/C=C/c2ccc(Br)cc2)c(OC)c1` [Compound 6a, (E)-3-(4-Bromophenyl)-1-(2-hydroxy-4,6-dimethoxyphenyl)prop-2-en-1-one]: the IC50 on human recombinant MAO-A is 12.3 ± 0.249 µM; on human recombinant MAO-B, > 100 µM.

With `COc1cc(OC)c2c(=O)cc(-c3ccc(OCC4CC4)cc3)oc2c1` [Compound 5b, 2-(4-(Cyclopropylmethoxy)phenyl)-5,7-dimethoxy-4H-chromen-4-one], the 50% inhibitory concentration (IC50) at human recombinant MAO-A was > 100 µM; on human recombinant MAO-B, 22.8 ± 2.1 µM. Moreover, the “Selectivity Index MAO-A/B” value on human recombinant MAO-B was >4.4.

In the case of `CCCNc1ccc(-c2cc(=O)c3c(OC)cc(OC)cc3o2)cc1` [Compound 6c, 5,7-Dimethoxy-2-(4-(propylamino)phenyl)-4H-chromen-4-one], the 50% inhibitory concentration (IC50) on human recombinant MAO-A was > 100 µM; on human recombinant MAO-B, 22.1 ± 2.48 µM. The “Selectivity Index MAO-A/B” value at human recombinant MAO-B is on record as >4.5.

For the compound `COc1cc(O)c(C(=O)/C=C/c2ccc(OCC3CC3)cc2)c(OC)c1` [Compound 5a, (E)-3-(4-(Cyclopropylmethoxy)phenyl)-1-(2-hydroxy-4,6-dimethoxyphenyl)prop-2-en-1-one], the IC50 on human recombinant MAO-A worked out at 1.3 ± 0.09 µM; on human recombinant MAO-B, 0.9 ± 0.035 µM. Besides, the “Selectivity Index MAO-A/B” value on human recombinant MAO-B came out at 1.4.

With `C#CCOc1ccc(/C=C/C(=O)c2c(O)cc(OC)cc2OC)cc1` [Compound 4a, (E)-1-(2-Hydroxy-4,6-dimethoxyphenyl)-3-(4-(prop-2-yn-1-yloxy)phenyl)prop-2-en-1-one], the 50% inhibitory concentration (IC50) at human recombinant MAO-A was determined as 9.42 ± 1.78 µM. At human recombinant MAO-B, the “Selectivity Index MAO-A/B” value is recorded as 1.1 and the IC50 is 8.33 ± 0.787 µM.
